# Assay results published in article PMC8508710, “Biochemical Characterization of 13-Lipoxygenases of Arabidopsis thaliana” (International Journal of Molecular Sciences, 2021).
# “And” between values parts separate entries of the source, which are not always exact repeats. Identical values can stand only once.
# What was measured:
# LOX4 [1] = target: T1, LOX4 (Arabidopsis thaliana, UniProt Q9FNX8); assay: LOX4 activity, oxygen electrode (polarography); assay type: biochemical; set-up: made in house; host or cells: E. coli Nico21(DE3), pET15b; conditions: 1.3 mM GSH, 140 µM 12-OPDA
# T1 sequence (Q9FNX8 71-926): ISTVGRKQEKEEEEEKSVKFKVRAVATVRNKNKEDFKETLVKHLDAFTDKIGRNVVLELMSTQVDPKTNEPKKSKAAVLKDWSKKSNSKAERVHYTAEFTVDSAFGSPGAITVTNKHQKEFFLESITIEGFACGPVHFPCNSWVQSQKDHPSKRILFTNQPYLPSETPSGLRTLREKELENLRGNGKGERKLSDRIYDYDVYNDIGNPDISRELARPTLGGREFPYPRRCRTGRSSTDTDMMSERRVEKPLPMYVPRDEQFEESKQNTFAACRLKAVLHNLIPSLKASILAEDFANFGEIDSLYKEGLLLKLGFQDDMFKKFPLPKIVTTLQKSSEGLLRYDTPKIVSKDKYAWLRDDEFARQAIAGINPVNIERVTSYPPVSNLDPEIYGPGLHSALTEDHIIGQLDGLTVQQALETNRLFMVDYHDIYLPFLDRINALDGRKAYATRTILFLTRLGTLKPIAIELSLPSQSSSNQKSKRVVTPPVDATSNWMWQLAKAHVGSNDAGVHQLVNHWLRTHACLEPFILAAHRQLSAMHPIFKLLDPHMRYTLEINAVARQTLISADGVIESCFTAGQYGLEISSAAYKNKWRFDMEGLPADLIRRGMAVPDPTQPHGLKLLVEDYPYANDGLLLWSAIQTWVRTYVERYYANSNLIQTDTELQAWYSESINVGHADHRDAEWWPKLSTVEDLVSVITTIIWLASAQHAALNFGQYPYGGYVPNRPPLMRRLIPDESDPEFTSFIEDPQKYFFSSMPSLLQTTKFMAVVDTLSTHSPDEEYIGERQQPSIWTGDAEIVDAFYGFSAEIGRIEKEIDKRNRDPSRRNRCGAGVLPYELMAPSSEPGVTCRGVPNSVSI
# LOX2 [2] = target: T2, LOX2 (Arabidopsis thaliana, UniProt P38418); assay: LOX2 activity, spectrophotometric (conjugated diene formation at 234 nm); conditions: for Relative Activity (%) LOX2: substrate specificity, 31 µM PUFA, 4 µg 13-LOX, LeA = 100%
# T2 sequence (P38418 71-896): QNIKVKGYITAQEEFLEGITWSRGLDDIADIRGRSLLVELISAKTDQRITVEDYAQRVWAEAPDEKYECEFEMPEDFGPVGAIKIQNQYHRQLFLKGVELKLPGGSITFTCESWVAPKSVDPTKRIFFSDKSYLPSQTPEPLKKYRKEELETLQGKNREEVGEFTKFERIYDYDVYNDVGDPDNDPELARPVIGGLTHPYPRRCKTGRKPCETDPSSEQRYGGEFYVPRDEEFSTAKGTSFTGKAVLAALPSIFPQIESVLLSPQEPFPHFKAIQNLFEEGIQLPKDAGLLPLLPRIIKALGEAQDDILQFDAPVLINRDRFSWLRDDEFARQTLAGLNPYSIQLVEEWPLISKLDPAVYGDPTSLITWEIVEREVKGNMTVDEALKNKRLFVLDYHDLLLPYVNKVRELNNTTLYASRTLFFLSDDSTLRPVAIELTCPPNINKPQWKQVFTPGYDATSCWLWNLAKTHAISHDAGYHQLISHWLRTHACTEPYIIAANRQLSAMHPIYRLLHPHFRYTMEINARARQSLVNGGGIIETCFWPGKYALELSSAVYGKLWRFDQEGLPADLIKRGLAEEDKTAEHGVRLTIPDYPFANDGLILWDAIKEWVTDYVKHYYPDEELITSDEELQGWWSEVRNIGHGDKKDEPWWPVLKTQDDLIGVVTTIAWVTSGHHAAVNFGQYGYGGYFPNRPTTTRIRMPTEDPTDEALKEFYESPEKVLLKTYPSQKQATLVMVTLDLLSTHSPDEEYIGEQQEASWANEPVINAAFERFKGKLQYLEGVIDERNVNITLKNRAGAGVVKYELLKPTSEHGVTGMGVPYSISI
# LOX4 [3] = target: T1, LOX4; assay: LOX4 activity, spectrophotometric (conjugated diene formation at 234 nm); conditions: for Relative Activity (%) LOX4: substrate specificity, 31 µM PUFA, 4 µg 13-LOX, LeA = 100%
# LOX3 = target: T3, LOX3 (Arabidopsis thaliana, UniProt Q9LNR3); assay: LOX3 activity, spectrophotometric (conjugated diene formation at 234 nm); conditions: for Relative Activity (%) LOX3: substrate specificity, 31 µM PUFA, 4 µg 13-LOX, LeA = 100%
# T3 sequence (Q9LNR3 71-919): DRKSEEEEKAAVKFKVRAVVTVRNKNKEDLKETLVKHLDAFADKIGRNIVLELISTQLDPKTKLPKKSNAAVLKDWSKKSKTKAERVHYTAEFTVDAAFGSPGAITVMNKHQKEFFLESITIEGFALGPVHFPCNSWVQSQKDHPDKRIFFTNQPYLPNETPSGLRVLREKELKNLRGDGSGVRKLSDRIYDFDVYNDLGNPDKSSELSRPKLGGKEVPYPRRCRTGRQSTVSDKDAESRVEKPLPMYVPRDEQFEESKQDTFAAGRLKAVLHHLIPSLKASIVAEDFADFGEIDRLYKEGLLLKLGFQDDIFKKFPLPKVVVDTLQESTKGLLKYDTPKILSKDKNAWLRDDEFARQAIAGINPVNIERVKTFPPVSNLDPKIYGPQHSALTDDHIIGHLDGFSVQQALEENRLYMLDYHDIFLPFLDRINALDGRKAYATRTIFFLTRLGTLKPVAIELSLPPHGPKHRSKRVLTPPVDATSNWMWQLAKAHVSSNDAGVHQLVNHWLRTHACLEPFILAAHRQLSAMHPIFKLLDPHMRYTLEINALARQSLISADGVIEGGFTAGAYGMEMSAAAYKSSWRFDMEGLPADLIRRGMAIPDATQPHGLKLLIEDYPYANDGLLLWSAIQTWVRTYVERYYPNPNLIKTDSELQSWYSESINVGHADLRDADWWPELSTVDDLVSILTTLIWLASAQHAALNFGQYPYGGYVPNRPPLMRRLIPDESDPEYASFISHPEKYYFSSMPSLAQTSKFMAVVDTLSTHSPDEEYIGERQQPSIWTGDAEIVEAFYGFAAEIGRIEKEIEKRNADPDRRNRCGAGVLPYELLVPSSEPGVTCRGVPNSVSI
# LOX6 = target: T4, LOX6 (Arabidopsis thaliana, UniProt Q9CAG3); assay: LOX6 activity, spectrophotometric (conjugated diene formation at 234 nm); conditions: for Relative Activity (%) LOX6: substrate specificity, 31 µM PUFA, 4 µg 13-LOX, LeA = 100%
# T4 sequence (Q9CAG3 41-917): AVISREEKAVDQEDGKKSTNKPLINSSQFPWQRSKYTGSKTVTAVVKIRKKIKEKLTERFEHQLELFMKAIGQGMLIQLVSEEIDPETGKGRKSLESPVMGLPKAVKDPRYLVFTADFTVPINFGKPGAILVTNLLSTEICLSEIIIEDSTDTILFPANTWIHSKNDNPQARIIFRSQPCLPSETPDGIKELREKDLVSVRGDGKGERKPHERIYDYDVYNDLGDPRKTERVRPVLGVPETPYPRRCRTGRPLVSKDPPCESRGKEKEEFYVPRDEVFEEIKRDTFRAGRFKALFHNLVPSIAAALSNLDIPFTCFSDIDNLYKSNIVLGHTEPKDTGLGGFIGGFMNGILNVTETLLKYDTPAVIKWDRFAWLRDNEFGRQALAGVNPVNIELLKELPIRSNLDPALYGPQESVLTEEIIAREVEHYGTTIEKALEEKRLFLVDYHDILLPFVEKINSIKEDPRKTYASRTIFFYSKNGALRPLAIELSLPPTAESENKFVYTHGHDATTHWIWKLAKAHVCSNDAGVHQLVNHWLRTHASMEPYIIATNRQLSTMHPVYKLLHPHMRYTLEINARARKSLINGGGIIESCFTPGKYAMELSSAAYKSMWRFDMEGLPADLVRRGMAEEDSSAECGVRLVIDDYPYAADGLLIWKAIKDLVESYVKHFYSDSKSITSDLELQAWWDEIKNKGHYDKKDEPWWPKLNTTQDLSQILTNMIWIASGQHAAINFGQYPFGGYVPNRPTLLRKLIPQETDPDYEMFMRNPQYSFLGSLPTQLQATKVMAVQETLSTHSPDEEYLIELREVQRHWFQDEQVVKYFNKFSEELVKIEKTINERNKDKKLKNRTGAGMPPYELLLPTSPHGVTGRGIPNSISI
# LOX2 [4] = target: T2, LOX2; set-up: made in house; host or cells: E. coli Nico21(DE3), pET15b; method as in PMID 18949503; conditions: cited from earlier work
# [5] = read-out: Inhibition after pre-incubation with PUFA
# [6] = read-out: Km app, substrate LeA, Michaelis Menten fit, apparent
# [7] = enzyme 0.225 µg/µL incubated 10 min 30 °C with 280 µM chemical, 4.8 µM LeA, 50 mM Tris-HCl pH 7.2, vs solvent control
structure (smiles),measurement,setting,value
N[C@@H](CCC(=O)N[C@@H](CS)C(=O)NCC(=O)O)C(=O)O [GSH],Protective effect on LOX4 against 12-OPDA,LOX4 [1]; 12.2 µg LOX4,~ 7.1%
same,Protective effect on LOX4 against 12-OPDA,LOX4 [1]; doubled LOX4 concentration,~ 11.7%
"CCCCC/C=C\C/C=C\CCCCCCCC(=O)O [LA, linoleic acid]",Relative Activity (%) LOX2,LOX2 [2]; 50 mM Tris-HCl pH 7.2,79% and 79 ± 7%
same,inhibition at 118 µM,LOX4 [3]; [5],> 50%
same,Relative Activity (%) LOX4,LOX4 [3]; 50 mM Tris-HCl pH 7.2,11 ± 1%
same,inhibition at 118 µM,LOX3; [5],> 50%
same,Relative Activity (%) LOX3,LOX3; 50 mM Tris-HCl pH 7.2,12 ± 1%
same,inhibition at 29 µM,LOX6; [5],> 50%
same,Relative Activity (%) LOX6,LOX6; 50 mM Tris-HCl pH 7.2,17 ± 1%
same,LOX2 activity with PUFA (relative),LOX2 [4],~ 40%
"CC/C=C\C/C=C\C/C=C\CCCCCCCC(=O)O [LeA, α-linolenic acid]",Maximum activity in pH profile,"LOX2 [2]; LeA 9.8 µM, optimal pH 6.6",3.9 ± 0.4 nmol·s^−1·mg^−1
same,Km,"LOX2 [2]; read-out: Km app, substrate LeA, Michaelis Menten fit, apparent (purity and iron load not considered)",26.3 ± 2 µM
same,Relative Activity (%) LOX2,LOX2 [2]; 50 mM Tris-HCl pH 7.2,100%
same,Maximum activity in pH profile,"LOX4 [3]; LeA 9.8 µM, optimal pH 7.2",62.3 ± 0.4 nmol·s^−1·mg^−1
same,Km,LOX4 [3]; [6],5.8 µM
same,Vmax app,"LOX4 [3]; substrate LeA, Michaelis Menten fit, apparent",128 ± 18 nmol/s/mg and 128 nmol/s/mg
same,Relative Activity (%) LOX4,LOX4 [3]; 50 mM Tris-HCl pH 7.2,100%
same,Maximum activity in pH profile,"LOX3; LeA 9.8 µM, optimal pH",50.5±2.8 nmol·s^−1·mg^−1
same,Relative Activity (%) LOX3,LOX3; 50 mM Tris-HCl pH 7.2,100%
same,Maximum activity in pH profile,"LOX6; LeA 9.8 µM, optimal pH",1.6±0.1 nmol·s^−1·mg^−1
same,Km,LOX6; [6],1.2 ± 0.4 µM
same,Relative Activity (%) LOX6,LOX6; 50 mM Tris-HCl pH 7.2,100%
"CCN1C(=O)C=CC1=O [NEM, N-ethylmaleimide]",Photometry Relative activity (%) LOX2,LOX2 [2]; [7],35 ± 10%
same,Photometry Relative activity (%) LOX4,LOX4 [3]; [7],3 ± 2%
same,Photometry Relative activity (%) LOX3,LOX3; [7],29 ± 10%
same,Photometry Relative activity (%) LOX6,LOX6; [7],13 ± 2%
